Data from publication PMC9381133 (Molecular Cancer Therapeutics, 2022).
pIC50: −log10 of the molar value.

Target: T1, CD73 (ecto-5′-nucleotidase) (Mus musculus, UniProt Q61503)
T1 sequence (Q61503 29-551): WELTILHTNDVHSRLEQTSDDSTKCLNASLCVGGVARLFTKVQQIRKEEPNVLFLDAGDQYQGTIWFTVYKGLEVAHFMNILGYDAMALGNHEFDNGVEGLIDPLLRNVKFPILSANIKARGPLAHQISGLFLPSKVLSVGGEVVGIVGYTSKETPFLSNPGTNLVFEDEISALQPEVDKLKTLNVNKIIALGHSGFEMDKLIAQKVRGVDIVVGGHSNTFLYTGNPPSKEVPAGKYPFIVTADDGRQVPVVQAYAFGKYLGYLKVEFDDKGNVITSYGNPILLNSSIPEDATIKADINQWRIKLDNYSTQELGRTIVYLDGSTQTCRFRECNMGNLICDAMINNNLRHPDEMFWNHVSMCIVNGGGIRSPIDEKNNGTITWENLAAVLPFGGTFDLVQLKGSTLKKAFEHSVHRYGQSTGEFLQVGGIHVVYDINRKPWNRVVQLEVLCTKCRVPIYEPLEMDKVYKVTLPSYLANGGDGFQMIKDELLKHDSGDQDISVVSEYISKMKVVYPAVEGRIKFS
Test: […]5-AMP hydrolysis in B16F10 tumor homogenate, LC/MS of […]5-adenosine
Assay type: biochemical

pIC50: 9.15
SMILES: C[C@H](Nc1cc(Cl)nc2c1cnn2[C@@H]1O[C@H](COP(=O)(O)CP(=O)(O)O)[C@@H](O)[C@H]1O)c1ccccc1F [AB680]
